# Strand notation (5' to 3'): a small letter for the sugar, then the base; units joined by * are phosphorothioate-linked, units joined directly phosphodiester-linked; [ ] holds rarer units or linkages, { } end groups; capitals alone tell only the bases. k = constrained ethyl (cEt); [5mC] = 5-methylcytosine; d = 2'-deoxy (DNA)
# System: human SMAD7 mRNA
# Experiment: Antisense inhibition of human SMAD7 mRNA expression in Hep3B cells by 3-10-3 cEt gapmers, 10,000 nM, electroporation (Example 2)
# Type: cell-based
# Settings: Hep3B cells, 10,000 nM antisense oligonucleotide, electroporation, approximately 24 hours, RT-PCR primer probe set RTS5062, relative to untreated control cells
# Procedure: Antisense oligonucleotides were designed to target human SMAD7 mRNA and were tested for their effects on SMAD7 mRNA expression in vitro. The antisense oligonucleotides were tested in a series of experiments that had similar culture conditions, as described below. ION 771576, described in the studies above and which is a 5-10-5 MOE gapmer, was also included in these assays. Cultured Hep3B cells at a density of 20,000 cells per well were transfected using electroporation with 10,000 nM antisense oligonucleotide. After a treatment period of approximately 24 hours, RNA was isolated from the cells and SMAD7 mRNA levels were measured by quantitative real-time PCR. Primer probe set RTS5062 was used to measure human SMAD7 mRNA levels. SMAD7 mRNA levels were adjusted according to total RNA content, as measured by RIBOGREEN®. Results are presented as percent inhibition of SMAD7 mRNA expression, relative to untreated control cells.
# The newly designed chimeric antisense oligonucleotides in the Tables below were designed as 3-10-3 cEt gapmers. The gapmers are 16 nucleosides in length, wherein the central gap segment comprises often 2′-deoxynucleosides and is flanked by wing segments on the 5′ direction and the 3′ direction comprising three nucleosides each. Each nucleoside in the 5′ wing segment and each nucleoside in the 3′ wing segment has a cEt sugar modification. The internucleoside linkages throughout each gapmer are phosphorothioate (P═S) linkages. All cytosine residues throughout each gapmer are 5-methylcytosines.
# “Start site” indicates the 5′-most nucleoside to which the gapmer is targeted in the human gene sequence. “Stop site” indicates the 3′-most nucleoside to which the gapmer is targeted human gene sequence. […] Some of the oligonucleotides presented were complementary to SMAD7 mRNA sequences RefSeqNo. NM_001190821.1 (designated herein as SEQ ID NO: 3) or RefSeqNo. NM_001190822.1 (designated herein as SEQ ID NO: 4), and are presented in a separate table shown below.
row,Substance,% Inhibition [%]
1,772597 (k[5mC]*kA*kG*dT*dA*dT*dG*d[5mC]*d[5mC]*dA*d[5mC]*d[5mC]*dA*k[5mC]*kG*k[5mC]; antisense) [compound 772597],0
2,772613 (kA*kT*kT*dG*dA*dG*d[5mC]*dT*dG*dT*d[5mC]*d[5mC]*dG*kA*kG*kG; antisense) [compound 772613],7
3,772621 (kA*kA*k[5mC]*dT*dG*d[5mC]*dT*dG*d[5mC]*dG*dG*dT*dT*kG*kT*kA; antisense) [compound 772621],38
4,772628 (kG*k[5mC]*k[5mC]*dT*dT*dG*dA*dT*dG*dG*dA*dG*dA*kA*kA*k[5mC]; antisense) [compound 772628],33
5,772633 (kG*kG*kT*d[5mC]*dA*dT*dT*dG*dG*dG*d[5mC]*d[5mC]*dG*k[5mC]*kT*kG; antisense) [compound 772633],37

# Same assay, conditions: Hep3B cells, electroporation with 10,000 nM antisense oligonucleotide, approximately 24 hours, SMAD7 mRNA by RT-PCR (RTS5062), relative to untreated control cells
row,Substance,% Inhibition [%]
1,772536 (antisense kG*kA*k[5mC]*d[5mC]*dT*d[5mC]*d[5mC]*dG*d[5mC]*dA*d[5mC]*dA*d[5mC]*k[5mC]*kA*kT) [compound 772536],22
2,772556 (antisense kA*kG*k[5mC]*dA*dG*dG*dA*dG*dG*d[5mC]*dA*d[5mC]*dG*k[5mC]*kG*kG) [compound 772556],43
3,772557 (antisense kG*kT*k[5mC]*d[5mC]*dA*dG*dG*d[5mC]*dG*dG*d[5mC]*d[5mC]*dG*kG*kG*k[5mC]) [compound 772557],2
4,772563 (antisense kG*kG*k[5mC]*d[5mC]*dA*d[5mC]*d[5mC]*dT*dG*dA*dA*d[5mC]*dA*k[5mC]*kT*kT) [compound 772563],0
5,772565 (antisense kA*kA*kT*dG*d[5mC]*d[5mC]*dT*dG*dA*dG*dA*dT*d[5mC]*k[5mC]*kG*kG) [compound 772565],64
6,772572 (antisense kA*kT*k[5mC]*dT*dT*d[5mC]*d[5mC]*d[5mC]*dG*dT*dA*dA*dG*kA*kT*kT) [compound 772572],0
7,772573 (antisense kA*kG*k[5mC]*dA*d[5mC]*dA*d[5mC]*d[5mC]*dA*dG*d[5mC]*dT*d[5mC]*kG*kG*kG) [compound 772573],57
8,772587 (kA*kT*k[5mC]*d[5mC]*d[5mC]*d[5mC]*dA*dG*dG*d[5mC]*dT*d[5mC]*d[5mC]*kA*kG*kA; antisense) [compound 772587],39
9,772590 (kT*kG*kT*dG*dA*d[5mC]*d[5mC]*dG*dA*dT*d[5mC]*d[5mC]*d[5mC]*k[5mC]*kA*kG; antisense) [compound 772590],37
10,772606 (kA*kG*k[5mC]*d[5mC]*dA*dT*dT*d[5mC]*d[5mC]*d[5mC]*d[5mC]*dT*dG*kA*kG*kG; antisense) [compound 772606],41
11,772610 (kG*kG*k[5mC]*dA*dA*dA*dA*dG*d[5mC]*d[5mC]*dA*dT*dT*k[5mC]*k[5mC]*k[5mC]; antisense) [compound 772610],34
12,772642 (kT*kA*k[5mC]*d[5mC]*dG*dG*d[5mC]*dT*dG*dT*dT*dG*dA*kA*kG*kA; antisense) [compound 772642],0

# Same assay, conditions: Hep3B cells, electroporation with 10,000 nM antisense oligonucleotide, approximately 24 hours, primer probe set RTS5062, relative to untreated control cells
row,Substance,% inhibition of SMAD7 mRNA expression [%]
1,772532 (antisense k[5mC]*kA*kG*d[5mC]*dA*dG*dG*d[5mC]*dG*d[5mC]*dA*dG*dG*k[5mC]*kG*kA) [compound 772532],21
2,772533 (antisense kT*kG*kA*dA*dG*dA*dA*dG*dT*d[5mC]*dG*dG*dG*k[5mC]*kG*k[5mC]) [compound 772533],31
3,772543 (antisense kG*kG*kA*d[5mC]*dG*dA*dG*d[5mC]*dG*d[5mC]*dA*dG*dA*kT*k[5mC]*kG) [compound 772543],58
4,772555 (antisense kA*kG*kG*d[5mC]*dA*d[5mC]*dG*d[5mC]*dG*dG*dT*dG*d[5mC]*kG*k[5mC]*kG) [compound 772555],23
5,772559 (antisense kA*kG*k[5mC]*dG*dA*dG*dT*dA*dG*dG*dA*d[5mC]*dG*kA*kG*kG) [compound 772559],14
6,772689 (kG*kT*kT*d[5mC]*dA*dT*dT*dT*dA*dA*dA*d[5mC]*d[5mC]*kT*kT*kT; antisense) [compound 772689],26

# Same assay, conditions: SMAD7 mRNA, Hep3B cells, 10,000 nM antisense oligonucleotide, electroporation, approximately 24 hours, primer probe set RTS5062, relative to untreated control cells
row,Substance,% Inhibition [%]
1,772535 (antisense k[5mC]*k[5mC]*kG*d[5mC]*dA*d[5mC]*dA*d[5mC]*d[5mC]*dA*dT*dG*dA*kA*kG*kA) [compound 772535],29
2,772540 (antisense kA*kG*kG*d[5mC]*dG*dA*dG*dG*dA*dG*dA*dA*dA*kA*kG*kT) [compound 772540],10
3,772551 (antisense kT*kT*k[5mC]*dA*dG*dA*dT*d[5mC]*d[5mC]*dG*d[5mC]*d[5mC]*dT*k[5mC]*kG*kG) [compound 772551],39
4,772552 (antisense kG*k[5mC]*kG*d[5mC]*d[5mC]*dT*dT*d[5mC]*dA*dG*dA*dT*d[5mC]*k[5mC]*kG*k[5mC]) [compound 772552],34
5,772567 (antisense kG*kA*k[5mC]*dT*dT*d[5mC]*d[5mC]*dG*dA*dG*dG*dA*dA*kT*kG*k[5mC]) [compound 772567],58
6,772571 (antisense k[5mC]*k[5mC]*kG*dT*dA*dA*dG*dA*dT*dT*d[5mC]*dA*d[5mC]*kA*kG*k[5mC]) [compound 772571],50
7,772582 (k[5mC]*kT*kG*dA*dA*dA*dG*d[5mC]*d[5mC]*d[5mC]*d[5mC]*d[5mC]*d[5mC]*kA*kG*kG; antisense) [compound 772582],34
8,772584 (kG*kA*kA*dG*dT*dT*dG*dG*dG*dA*dA*dT*d[5mC]*kT*kG*kA; antisense) [compound 772584],4
9,772589 (kA*k[5mC]*k[5mC]*dG*dA*dT*d[5mC]*d[5mC]*d[5mC]*d[5mC]*dA*dG*dG*k[5mC]*kT*k[5mC]; antisense) [compound 772589],9
10,772591 (kA*kG*kT*dG*dT*dG*dA*d[5mC]*d[5mC]*dG*dA*dT*d[5mC]*k[5mC]*k[5mC]*k[5mC]; antisense) [compound 772591],60
11,772592 (k[5mC]*kA*k[5mC]*d[5mC]*dA*dG*dT*dG*dT*dG*dA*d[5mC]*d[5mC]*kG*kA*kT; antisense) [compound 772592],24
12,772593 (kA*k[5mC]*kG*d[5mC]*dA*d[5mC]*d[5mC]*dA*dG*dT*dG*dT*dG*kA*k[5mC]*k[5mC]; antisense) [compound 772593],42
13,772595 (kA*k[5mC]*k[5mC]*dA*d[5mC]*dG*d[5mC]*dA*d[5mC]*d[5mC]*dA*dG*dT*kG*kT*kG; antisense) [compound 772595],2
14,772604 (kA*kT*kT*d[5mC]*d[5mC]*d[5mC]*d[5mC]*dT*dG*dA*dG*dG*dT*kA*kG*kA; antisense) [compound 772604],48
15,772611 (kT*k[5mC]*k[5mC]*dG*dA*dG*dG*d[5mC]*dA*dA*dA*dA*dG*k[5mC]*k[5mC]*kA; antisense) [compound 772611],14
16,772614 (kG*kA*k[5mC]*dT*d[5mC]*dT*dT*dG*dT*dT*dG*dT*d[5mC]*k[5mC]*kG*kA; antisense) [compound 772614],43
17,772623 (kA*kG*kT*d[5mC]*d[5mC]*dG*dG*dG*dT*dT*dG*dT*d[5mC]*k[5mC]*kA*kG; antisense) [compound 772623],42
18,772635 (kA*kA*kG*d[5mC]*dT*dG*dA*dT*d[5mC]*dT*dG*d[5mC]*dA*k[5mC]*kG*kG; antisense) [compound 772635],43
19,772687 (kA*k[5mC]*k[5mC]*dT*dT*dT*dG*dT*dA*dG*dT*dT*dA*kG*kA*kA; antisense) [compound 772687],46

# From patent US10517889B2, “Modulators of SMAD7 expression” (Ionis Pharmaceuticals, Inc., priority 2017, dated 2019)
